Reference: patent publication US20130158043A1, “PAK INHIBITORS FOR THE TREATMENT OF CANCER” (AFRAXIS, INC., priority 2011, published 2013)

Tests used:
Test in all cases: In vitro PAK inhibition assay (Z'-LYTE, SelectScreen Kinase Profiling)
Type in all cases: biochemical
PAK2 (PAK65) = PAK2 (PAK65) (Homo sapiens, UniProt Q13177)
Procedure: (§1) Compounds are screened in 1% DMSO (final) in the well. For 10 point titrations, 3-fold serial dilutions are conducted. All Peptide/Kinase Mixtures are diluted to a 2× working concentration in the appropriate Kinase Buffer
The 2×PAK2 (PAK65)/Ser/Thr 20 mixture is prepared in 50 mM HEPES pH 7.5, 0.01% BRIJ-35, 10 mM MgCl2, 1 mM EGTA. The final 10 μL Kinase Reaction consists of 0.29-6 ng PAK2 (PAK65) and 2 μM Ser/Thr 20 in 50 mM HEPES pH 7.5, 0.01% BRIJ-35, 10 mM MgCl2, 1 mM EGTA.
(§2) Add the following solutions to a well in a 384-well plate: 2.5 μL of 4× Test Compound OR (100 nL 100× Test Compound plus 2.4 μL kinase buffer) • 5 μL of 2× Peptide/Kinase (PAK) Mixture • 2.5 μL of 4×ATP Solution • 2. Shake the plate for 30-seconds • 3. Incubate the PAK Kinase Reaction at room temperature for 60-minutes • 4. Add 5 μL of Development Reagent Solution to each well • 5. Shake the plate for 30-seconds • 6. Incubate the Development Reaction for 60-minutes • 7. Determine the fluorescence using a fluorescence plate reader • 8. Analyze the fluorescence data
(§3) SelectScreen® Kinase Profiling Service uses XLfit from IDBS.

PAK1 = PAK1 (Homo sapiens, UniProt Q13153)
PAK1, sequence (Q13153 whole entry): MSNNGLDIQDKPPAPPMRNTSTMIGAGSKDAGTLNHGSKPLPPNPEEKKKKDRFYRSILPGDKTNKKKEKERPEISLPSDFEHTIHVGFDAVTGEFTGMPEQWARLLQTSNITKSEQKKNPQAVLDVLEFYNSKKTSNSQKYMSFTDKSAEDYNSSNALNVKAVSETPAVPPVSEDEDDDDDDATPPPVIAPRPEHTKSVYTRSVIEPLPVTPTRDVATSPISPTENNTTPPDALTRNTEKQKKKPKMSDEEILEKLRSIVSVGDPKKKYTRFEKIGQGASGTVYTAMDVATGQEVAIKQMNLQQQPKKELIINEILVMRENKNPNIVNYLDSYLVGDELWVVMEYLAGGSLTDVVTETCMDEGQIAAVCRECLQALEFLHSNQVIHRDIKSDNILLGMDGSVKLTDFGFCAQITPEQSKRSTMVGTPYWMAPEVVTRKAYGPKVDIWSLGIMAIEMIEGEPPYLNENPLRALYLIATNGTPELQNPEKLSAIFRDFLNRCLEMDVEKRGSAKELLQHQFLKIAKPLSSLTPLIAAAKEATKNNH
Procedure: as §1
The 2×PAK1/Ser/Thr 19 mixture is prepared in 50 mM HEPES pH 7.5, 0.01% BRIJ-35, 10 mM MgCl2, 1 mM EGTA.
as §2, §3

PAK-4 = PAK-4 (Homo sapiens, UniProt O96013); conditions: read-out: PAK4 IC50
PAK-4, sequence (O96013 whole entry): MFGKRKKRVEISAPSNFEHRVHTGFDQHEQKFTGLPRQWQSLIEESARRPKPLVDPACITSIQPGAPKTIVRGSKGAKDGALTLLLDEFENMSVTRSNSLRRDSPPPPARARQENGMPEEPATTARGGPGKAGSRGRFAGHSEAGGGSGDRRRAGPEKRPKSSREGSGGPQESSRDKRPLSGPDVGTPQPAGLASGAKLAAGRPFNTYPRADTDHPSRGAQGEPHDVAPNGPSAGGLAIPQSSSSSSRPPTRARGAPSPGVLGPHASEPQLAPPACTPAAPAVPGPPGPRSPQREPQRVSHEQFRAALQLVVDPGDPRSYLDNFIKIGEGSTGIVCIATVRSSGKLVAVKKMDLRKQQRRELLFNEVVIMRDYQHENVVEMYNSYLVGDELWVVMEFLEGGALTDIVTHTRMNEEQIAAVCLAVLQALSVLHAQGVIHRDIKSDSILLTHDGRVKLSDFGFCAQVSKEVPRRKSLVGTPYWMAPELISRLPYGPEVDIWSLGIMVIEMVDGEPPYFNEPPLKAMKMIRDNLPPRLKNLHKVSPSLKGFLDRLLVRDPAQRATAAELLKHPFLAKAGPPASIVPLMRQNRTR
Procedure: as §1
The 2X PAK-4/Ser/Thr 20 mixture is prepared in 50 mM HEPES pH 7.5, 0.01% BRIJ-35, 10 mM MgCl2, 1 mM EGTA. The final 10 μL Kinase Reaction consists of 0.1-0.75 ng PAK-4 and 2 μM Ser/Thr 20 in 50 mM HEPES pH 7.5, 0.01% BRIJ-35, 10 mM MgCl2, 1 mM EGTA. After the 1 hour Kinase Reaction incubation, 5 μL of a 1:256 dilution of Development Reagent A is added.
as §2, with “Bar-coded Corning, low volume NBS, black 384-well plate (Corning Cat. #3676) • 1. Add the” for “Add the”
SelectScreen® Kinase Profiling Service uses XLfit from IDBS. The dose response curve is curve fit to model number 205 (sigmoidal dose-response model).

PAK3 = PAK3 (Homo sapiens, UniProt O75914)
PAK3, sequence (O75914 whole entry): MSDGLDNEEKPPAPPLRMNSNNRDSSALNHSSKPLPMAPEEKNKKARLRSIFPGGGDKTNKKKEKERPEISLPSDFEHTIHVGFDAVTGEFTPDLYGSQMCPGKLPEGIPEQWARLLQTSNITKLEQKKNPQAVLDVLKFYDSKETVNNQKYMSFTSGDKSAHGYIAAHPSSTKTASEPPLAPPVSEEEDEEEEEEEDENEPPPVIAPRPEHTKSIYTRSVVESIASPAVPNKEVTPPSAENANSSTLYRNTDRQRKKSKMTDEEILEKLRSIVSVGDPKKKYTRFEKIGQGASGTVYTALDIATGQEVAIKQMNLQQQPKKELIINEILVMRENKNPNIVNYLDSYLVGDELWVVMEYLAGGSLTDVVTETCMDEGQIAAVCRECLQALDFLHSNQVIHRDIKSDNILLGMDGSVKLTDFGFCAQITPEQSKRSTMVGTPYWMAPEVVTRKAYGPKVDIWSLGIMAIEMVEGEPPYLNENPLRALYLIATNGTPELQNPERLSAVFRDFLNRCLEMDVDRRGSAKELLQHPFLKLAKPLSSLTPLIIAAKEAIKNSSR
Procedure: as §1
The 2×PAK3/Ser/Thr 20 mixture is prepared in 50 mM HEPES pH 7.5, 0.01% BRIJ-35, 10 mM MgCl2, 1 mM EGTA.
as §2, §3

PAK2 (PAK65), sequence (Q13177 whole entry): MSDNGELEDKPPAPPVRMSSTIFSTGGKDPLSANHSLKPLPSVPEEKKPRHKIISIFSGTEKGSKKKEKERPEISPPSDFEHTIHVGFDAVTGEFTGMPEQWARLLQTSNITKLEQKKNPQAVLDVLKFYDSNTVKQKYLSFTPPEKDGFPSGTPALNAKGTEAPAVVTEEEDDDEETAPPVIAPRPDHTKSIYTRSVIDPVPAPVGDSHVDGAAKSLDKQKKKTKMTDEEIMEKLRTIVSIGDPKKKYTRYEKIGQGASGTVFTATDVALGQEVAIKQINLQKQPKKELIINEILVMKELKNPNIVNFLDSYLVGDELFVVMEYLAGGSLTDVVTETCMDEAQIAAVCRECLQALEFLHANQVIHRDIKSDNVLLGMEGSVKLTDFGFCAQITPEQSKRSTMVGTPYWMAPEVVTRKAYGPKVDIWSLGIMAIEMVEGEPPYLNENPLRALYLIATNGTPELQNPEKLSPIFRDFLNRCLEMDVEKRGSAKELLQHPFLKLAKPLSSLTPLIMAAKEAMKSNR

Row | IC50 (PAK2 (PAK65)) | IC50 (PAK1) | IC50 (PAK-4) | IC50 (PAK3) | Structure (SMILES)
1 | < 50 nM | < 50 nM | 500 to 5000 nM | < 50 nM | CCn1c(=O)c(-c2ccc(-c3nnco3)cc2Cl)cc2cnc(Nc3ccc(N4CCN(C)CC4)cc3)nc21
2 | 50 to 500 nM | 50 to 500 nM | 500 to 5000 nM | 500 to 5000 nM | CCS(=O)(=O)c1ccccc1Cn1c(=O)ccc2cnc(Nc3ccc(N4CCN(C)CC4)cc3)nc21
3 | > 5000 nM | > 5000 nM | ≥ 5000 nM | > 5000 nM | CCn1c(=O)c(-c2ccc(S(C)(=O)=O)cc2)cc2cnc(Nc3ccc(N4CCN(C)CC4)cc3)nc21
4 | 50 to 500 nM | 50 to 500 nM | 500 to 5000 nM | 50 to 500 nM | CC#Cc1cc2cnc(Nc3ccc(N4CCN(C)CC4)cc3)nc2n(Cc2c(F)cccc2C2CC2)c1=O
5 | 50 to 500 nM | < 50 nM | 50 to 500 nM | 50 to 500 nM | CN1CCC(c2ccc(Nc3ncc4ccc(=O)n(Cc5c(F)cccc5C5CC5)c4n3)cc2)CC1
6 | 500 to 5000 nM | 50 to 500 nM | ≥ 5000 nM | 50 to 500 nM | CCn1c(=O)c(-c2cccc(S(C)(=O)=O)c2)cc2cnc(Nc3ccc(N4CCN(C)CC4)cc3)nc21
7 | < 50 nM | < 50 nM | 500 to 5000 nM | < 50 nM | CCS(=O)(=O)c1ccccc1Cn1c(=O)c(-c2ccccc2Cl)cc2cnc(Nc3ccc(N4CCN(C)CC4)cc3)nc21
8 | 50 to 500 nM | 50 to 500 nM | 500 to 5000 nM | 500 to 5000 nM | CC#Cc1cc2cnc(Nc3ccc(N4CCN(C)CC4)cc3)nc2n(Cc2ccccc2C(F)(F)F)c1=O
9 | < 50 nM | < 50 nM | 50 to 500 nM | < 50 nM | CCn1c(=O)c(-c2ccc(-c3cccnc3F)cc2Cl)cc2cnc(Nc3ccc(N4CCN(C)CC4)cc3)nc21
10 | – | – | ≥ 5000 nM | – | CCn1c(=O)c(-c2ccc(-c3cncs3)cc2Cl)cc2cnc(Nc3ccc(N4CCN(C)CC4)cc3)nc21
11 | < 50 nM | < 50 nM | 500 to 5000 nM | < 50 nM | CCn1c(=O)c(-c2ccc(-c3noc(C)n3)cc2Cl)cc2cnc(Nc3ccc(C4CCN(C)CC4)cc3)nc21
12 | 50 to 500 nM | 50 to 500 nM | ≥ 5000 nM | 50 to 500 nM | CCn1c(=O)c(-c2ccc(-c3ccnc(C(N)=O)c3)cc2Cl)cc2cnc(Nc3ccc(C4CCN(C)CC4)cc3)nc21
13 | < 50 nM | < 50 nM | 500 to 5000 nM | 50 to 500 nM | CCn1c(=O)c(-c2ccc(-c3noc(C)n3)cc2Cl)cc2cnc(Nc3ccc(C4CCNCC4)cc3)nc21
14 | < 50 nM | < 50 nM | 500 to 5000 nM | < 50 nM | CCn1c(=O)c(-c2ccc(-c3cnc(C)s3)cc2Cl)cc2cnc(Nc3ccc(C4CCN(C)CC4)cc3)nc21
15 | < 50 nM | < 50 nM | ≥ 5000 nM | < 50 nM | CCN1CCC(c2ccc(Nc3ncc4cc(-c5ccc(-c6cccnc6C)cc5Cl)c(=O)n(CC)c4n3)cc2)CC1
16 | < 50 nM | < 50 nM | 500 to 5000 nM | < 50 nM | CCN1CCC(c2ccc(Nc3ncc4cc(-c5ccc(-c6ccc(C)nc6)cc5Cl)c(=O)n(CC)c4n3)cc2)CC1
17 | < 50 nM | < 50 nM | 500 to 5000 nM | < 50 nM | CCn1c(=O)c(-c2ccc(-c3cccnc3)cc2Cl)cc2cnc(Nc3ccc(CCN(C)C)cc3)nc21
18 | < 50 nM | < 50 nM | 500 to 5000 nM | < 50 nM | CCn1c(=O)c(-c2ccc(-c3cnc(C)s3)cc2Cl)cc2cnc(Nc3ccc(C4CCNCC4)cc3)nc21
19 | < 50 nM | < 50 nM | ≥ 5000 nM | < 50 nM | CCn1c(=O)c(-c2ccc(-c3cccnc3C)cc2Cl)cc2cnc(Nc3ccc(C4CCNCC4)cc3)nc21
20 | < 50 nM | < 50 nM | 500 to 5000 nM | 50 to 500 nM | CCn1c(=O)c(-c2ccc(-c3ccnc(C)c3)cc2Cl)cc2cnc(Nc3ccc(C4CCNCC4)c(F)c3)nc21
